# Results taken from patent publication US12016948B2, “Micromotors and nanomotors for gastrointestinal diagnosis and treatment applications” (The Regents of the University of California, priority 2017, dated 2024).
# System: H. pylori Sydney strain 1 (HPSS1)
# Assay: In vitro bactericidal activity against H. pylori
# Assay type: cell-based
# Conditions: Helicobacter pylori; kills 3 logs (99.9%) of bacteria; samples pretreated in 0.1 N HCl 1 h; 24 h incubation; read-out: minimal bactericidal concentration (MBC)
# Procedure: To mimic the gastric environment, for example, samples were treated in 0.1 N HCl for 1 h prior to incubation with bacteria. This also ensured the dissolution of micromotors and consecutive drug release. […] Specifically, it was determined that the minimal bactericidal concentration (MBC) values of the samples, defined as the minimal concentration of an antimicrobial agent that kills 3 logs (99.9%) of the bacteria. […] Moreover, bare Mg-based micromotors with corresponding amount of motors were used as negative controls. […] Overall, FIG. 13D verifies that the activity of the loaded drug was not compromised compared to free drug. The example findings validate the potential use of these drug-loaded micromotors for therapeutic applications. In Vitro Anti-H. pylori Activity. H. pylori Sydney strain 1 (HPSS1) was cultured from frozen stock and routinely maintained on Columbia agar supplemented with 5% (vol/vol) laked horse blood at 37° C. under microaerobic conditions (e.g., 10% CO2, 85% N2, and 5% 02). For example, broth cultures of H. pylori were prepared by subculturing fresh colonies from agar plates into Brain heart infusion (BHI) supplemented with 5% fetal bovine serum (FBS) and incubated overnight at 37° C. under microaerobic conditions with moderate reciprocal shaking. […] The plates were cultured for 4 days before the colony-forming unit (CFU) of H. pylori was quantified. […]
structure (smiles),measurement,value
"CC[C@H]1OC(=O)[C@H](C)[C@@H](O[C@H]2C[C@@](C)(OC)[C@@H](O)[C@H](C)O2)[C@H](C)[C@@H](O[C@@H]2O[C@H](C)C[C@H](N(C)C)[C@H]2O)[C@](C)(OC)C[C@@H](C)C(=O)[C@H](C)[C@@H](O)[C@]1(C)O [free CLR, clarithromycin]",MBC,0.25 µg/mL
